From patent US8961946B2, “Hair processing agent and method for permanent waving hair” (Showa Denko K.K., priority 2004, dated 2015)
Structures can show the parent of a compound that is named as a salt.

Experiment: Waving efficiency at various pH, compounds (i) and (ii) tested singly (FIG. 1)
Settings: agent contains the compound at 2% by mass in terms of thioglycolic acid
Description: The hair processing agents tested herein contain the compound at 2% by mass in terms of thioglycolic acid. […] Consequently, the compounds (i) and (ii) in combination provide a permanent waving performance over a wide pH range.

SMILES	Changes of waving efficiency at various pH (FIG. 1)
NCCS [compound (ii), cysteamine hydrochloride]	low waving efficiency at acidic pH, but the waving efficiency linearly increases with the pH increase
O=C1OCCC1S (centres unmarked) [Synthetic Example 1, 2-mercapto-4-butyrolactone]	high waving efficiency in an acidic to neutral pH range
